Measured values as given in the supplement of paper PMC11061612.

Key:
Test in all cases: Bliss excess, mean over the matrix (fraction); higher = more synergy
[1] = system: UMC-11 (Other Solid Carcinomas)
Method in brief: (§1)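 After 24 hours at 37°C and 5% CO2 in 1536-well plates, cells in DMEM/F12 or RPMI plus 10% FBS received two-drug dose matrices for 72 hours. Viability came from CellTiter-Glo 2.0 luminescence and was scaled as inhibition, anchored at 0 by vehicle wells and at 1 by blank wells. Combination Emax is taken as the second-highest inhibition in the matrix, and Bliss excess as the observed combination effect less EA + EB − EA·EB, with EA and EB the single-agent effects.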

[2] = system: TE-4 (Esophageal Squamous Cell Carcinoma)
Method in brief: as §1

[3] = system: RKO (Colorectal Carcinoma)
Method in brief: as §1

[4] = system: MHH-PREB-1 (B-Cell Non-Hodgkin's Lymphoma)
Method in brief: as §1

[5] = system: RT-112 (Bladder Carcinoma)
Method in brief: as §1

[6] = system: SW1116 (Colorectal Carcinoma)
Method in brief: as §1

[7] = system: 639-V (Bladder Carcinoma)
Method in brief: as §1

[8] = system: NCI-H28 (Mesothelioma)
Method in brief: as §1

[9] = system: HCC-15 (Squamous Cell Lung Carcinoma)
Method in brief: as §1

[10] = system: NB14 (Neuroblastoma)
Method in brief: as §1

[11] = system: HDLM-2 (Hodgkin's Lymphoma)
Method in brief: as §1

[12] = system: LoVo (Colorectal Carcinoma)
Method in brief: as §1

[13] = system: K5 (Thyroid Gland Carcinoma)
Method in brief: as §1

[14] = system: SUP-T1 (T-Lymphoblastic Leukemia)
Method in brief: as §1

[15] = system: NCI-H2461 (Mesothelioma)
Method in brief: as §1

[16] = system: HMV-II (Melanoma)
Method in brief: as §1

[17] = system: Mewo (Melanoma)
Method in brief: as §1

[18] = system: Hs-633T (Other Solid Carcinomas)
Method in brief: as §1

[19] = system: HARA (Squamous Cell Lung Carcinoma)
Method in brief: as §1

[20] = system: SU-DHL-6 (B-Cell Non-Hodgkin's Lymphoma)
Method in brief: as §1

Row | Structure (SMILES) | Bliss excess [1] | Bliss excess [2] | Bliss excess [3] | Bliss excess [4] | Bliss excess [5] | Bliss excess [6] | Bliss excess [7] | Bliss excess [8] | Bliss excess [9] | Bliss excess [10] | Bliss excess [11] | Bliss excess [12] | Bliss excess [13] | Bliss excess [14] | Bliss excess [15] | Bliss excess [16] | Bliss excess [17] | Bliss excess [18] | Bliss excess [19] | Bliss excess [20]
1 | CCN(CCO)CCCOc1ccc2c(Nc3cc(CC(=O)Nc4cccc(F)c4)[nH]n3)ncnc2c1 [AZD2811] + C=CCn1c(=O)c2cnc(Nc3ccc(N4CCN(C)CC4)cc3)nc2n1-c1cccc(C(C)(C)O)n1 [AZD1775] (first compound max 1 µM, partner max 1 µM) | 0.0014 | -0.0057 | -0.0625 | -0.0254 | 0.0233 | -0.0275 | 0.0509 | -0.0541 | -0.0049 | -0.0236 | 0.0252 | -0.0731 | -0.0062 | 0.0302 | -0.0679 | -0.0339 | -0.011 | -0.008 | -0.0086 | 0.0537
2 | CS(=O)(=O)CCNCc1ccc(-c2ccc3ncnc(Nc4ccc(OCc5cccc(F)c5)c(Cl)c4)c3c2)o1 [Lapatinib] + C[C@@H](Oc1cc(-c2cnn(C3CCNCC3)c2)cnc1N)c1c(Cl)ccc(F)c1Cl [Crizotinib] (first compound max 10 µM, 7x7, partner max 10 µM) | -0.0964 | 0.0198 | -0.0977 | -0.0164 | 0.0155 | -0.0106 | -0.0596 | -0.0342 | -0.0179 | -0.0338 | -0.0545 | -0.0217 | -0.0213 | -0.0469 | -0.0523 | -0.11 | -0.032 | -0.0338 | -0.0259 | -0.0299
